From patent publication US9410958B2, “Alkyne-activated fluorogenic azide compounds and methods of use thereof” (The Regents of the University of California, priority 2014, dated 2016)
Entries after “also recorded” stand apart in the source; their conditions may differ. Read-outs that look alike come from different tables or passages of the source. Marks after values point to notes of the source that are not given here.

Legend:
[1] = data from Shieh et al. 2014; cited from earlier work
[2] = Photophysical properties and fluorescence quantum yields of Si-rhodamines in PBS pH 7.4; assay type: physicochemical; details: for Φfl: cresyl violet in methanol as standard
Procedure: The fluorescence quantum yields of the purified amino, azido, and triazolyl Si-rhodamines were measured in pH 7.4 phosphate buffered saline (PBS) using cresyl violet in methanol (Φfl=0.54) as a standard (Table 1). […] The best candidate of the four, 8-azidonaphthyl-substituted Si-rhodamine 1, afforded only a 5-fold increase in fluorescence quantum yield as compared with the 29-fold enhancement observed with the corresponding fluorescein.
Fluorescence quantum yields were measured by creating 2 mM stocks of dyes in MeOH. The dyes were then diluted to 20 μM in PBS, then further diluted in PBS to various final concentrations. The absorbance and emission spectra of five different concentrations of dye were measured while keeping maximum absorbance under 0.2. Solutions of probe were excited at 600 nm, and emission was integrated from 600 to 800 nm. Plotting integrated emission vs. absorbance at 600 nm yielded a line, whose slope corresponds to the fluorescence quantum yield. Absolute quantum yields were determined by comparison with the slope of the line measured for cresyl violet in MeOH (Φfl=0.54). The reported quantum yields are the average of three sets of measurements. Absorbance spectra were recorded on a Varian Cary 50 UV-Visible spectrophotometer. Fluorescence spectra were recorded on a Photon Technology International Quanta Master 4 L-format scanning spectrofluorometer equipped with an LPS-220B 75-W xenon lamp and power supply, A-1010B lamp housing with an integrated igniter, switchable 814 photon counting/analog photomultiplier detection unit, and MD5020 motor driver. Measurements were made in 1 cm×0.4 cm quartz cuvettes with a total sample volume of 1 mL.

[3] = tested on: CHO K1 cells; experiment: No-wash cell surface labeling of SiaNAl residues, CHO K1; assay type: cell-based
Procedure: Si-rhodamine 10 was evaluated as a reagent for imaging SiaNAl residues on live cell surfaces. CHO K1 cells were incubated with 50 μM Ac4ManNAl for 3 days, washed, and then incubated with 5 μM 10, 50 μM CuSO4, 300 μM BTTAA, and 1 mM sodium ascorbate. […] Cell-surface glycan labeling was visualized as it occurred in real time (FIG. 14). Background labeling was minimal on control cells treated with N-acetylmannosamine (Ac4ManNAc) (FIG. 13).

[4] = tested on: HEK 293T cells; experiment: No-wash live cell surface labeling and mitochondrial co-staining, HEK 293T; details: HEK 293T
Procedure: Cells were grown in 8-well Lab-Tek Chambered Coverglass systems in media (HAM-F12 for CHO K1 cells, DMEM for HEK 293T cells) containing 10% fetal bovine serum, penicillin/streptomycin, and either 50 μM Ac4ManNAl or Ac4ManNAc for 3 d at 37° C., as described previously. The cells were then washed with 3×300 μL PBS, then incubated with 100 μL freshly prepared click solution. Click solution comprised of 50 μM CuSO4, 300 μM BTTAA, 2.5 mM sodium ascorbate, and 5 μM azido Si-rhodamine. This was prepared by first adding 0.5 μL 50 mM CuSO4 in H2O and 3 μL 50 mM BTTAA in H2O to 481.5 μL PBS. Next, 12.5 μL freshly prepared 100 mM sodium ascorbate in PBS was added. Finally, 2.5 μL 1 mM azido Si-rhodamine in 4:1 PBS/MeOH was added. After 15 min, the reactions were quenched with the addition of 1 μL of 100 mM bathocuproine disulfonate (BCS) in H2O (final concentration 1 mM). […] For real-time imaging, images were acquired as the labeling progressed without quenching the reaction.
HEK 293T cells were grown in a LabTek 8-well chambered glass slide in DMEM containing fetal bovine serum, penicillin/streptomycin for 3 d at 37° C. The cells were then incubated with 100 nM MitoTracker Green FM and 1 μg/mL Hoechst 33342 in fresh media for 30 min at 37° C., then media removed and the cells incubated with 100 μL PBS containing 5 μM 10. The cells were then directly imaged.
The CalFluors' performance in no-wash cell imaging experiments was evaluated. Using established methods, cell-surface glycoconjugates were metabolically labeled with peracetylated N-pentynoyl mannosamine (Ac4ManNAl), which introduces terminal alkyne groups into sialic acid residues (SiaNAl). HEK 293T cells treated in this fashion were then incubated, without fixation, with a cocktail containing 50 μM CuSO4, 300 μM BTTAA, 5 mM sodium ascorbate and 10 μM CalFluor dye.
Cells were grown with 50 μM Ac4ManNAl or Ac4ManNAc for 3 days, then subjected to click labeling with CalFluor probes. (A) Labeling glycoproteins on live cell surfaces. Cells were treated with 10 μM azide probe, 50 μM CuSO4, 300 μM BTTAA ligand, and 5 mM sodium ascorbate. The reaction was quenched with 1 mM BCS and the cells imaged without further wash steps. (B) Labeling glycoproteins on fixed cells. Cells were fixed with 3% paraformaldehyde, then treated with 10 μM CalFluor probe, 1 mM CuSO4, 100 μM TBTA ligand, and 2 mM sodium ascorbate. 0.1 mg/mL BSA was added to prevent the TBTA from precipitating over the course of the reaction.

[5] = tested on: wild-type L. monocytogenes; experiment: D-alanine competition experiment; details: 5 mM cyclooctyne amino acid, 0 or 20 mM D-alanine
Procedure: The bacteria were incubated with 5 mM cyclooctyne amino acid, in the presence of either 0 or 20 mM D-alanine, and labeled following the general procedure.
Bacteria were grown to an optical density (OD) of 0.4 in their respective media (7H9 for M. smegmatis, LB for C. glutamicum, BHI for L. monocytogenes) at 37° C. (M. smegmatis and L. monocytogenes) or 30° C. (C. glutamicum). Then, 5 mM D-amino acid was added (from a 1 M stock in H2O, 1 eq. NaOH was added to help solubilize compounds 12, 13, and 14) and the cells grown for one doubling time. The bacteria were then added to a 96-well V-bottom plate at 200 μL/well and pelleted by centrifugation at 3500 rpm for 3 min. The supernatant was removed and the cells resuspended in 200 μL PBS and pelleted again. This wash process was repeated twice more. The cells were then incubated with 100 μL of 20 μM azido-PEG3-carboxyrhodamine 110 (Click Chemistry Tools) in PBS (made by diluting a 1 mM stock in 9:1 PBS/DMSO) and placed in a 37° C. shaker for 1 h. Alternatively, for alkDala, labeling was performed by incubation with 100 μL of 20 μM azido-PEG3-carboxyrhodamine 110, 128 μM TBTA, 1 mM CuSO4, and 1.2 mM sodium ascorbate in PBS in a 37° C. shaker for 1 h. The cells were washed three times, then fixed with 4% paraformaldehyde for 10 min at rt. The cells were washed another three times, then studied by flow cytometry and microscopy.

[6] = decrease (↓), amine relative to the azide
[7] = increase (↑), triazole relative to the azide

COc1cc(OC)c(-n2cc(CCC(=O)NCCO)nn2)cc1C1=C2C=CC(=[N+](C)C)C=C2[Si](C)(C)c2cc(N(C)C)ccc21 [2 triazole]
Enhancement [1]: 48x^a
Φfl [1]: 0.20^a
λem [1]: 668 nm^a
λmax [1]: 665 nm^a

CN(C)c1ccc2c(c1)[Si](C)(C)C1=CC(=[N+](C)C)C=CC1=C2c1ccc(N)c2ccccc12 [Compound 1-NH2]
λabs [2]: 653 nm
λem [2]: 669 nm
Φfl [2]: 0.0016
Change in Φfl [2, 6]: 24-fold ↓

CN(C)c1ccc2c(c1)[Si](C)(C)C1=CC(=[N+](C)C)C=CC1=C2c1ccc(-n2cc(CCC(=O)NCCO)nn2)c2ccccc12 [Compound 1-triazole]
λabs [2]: 656 nm
λem [2]: 670 nm
Φfl [2]: 0.19
Change in Φfl [2, 7]: 5.0-fold ↑

COc1ccc(N=[N+]=[N-])cc1C1=C2C=CC(=[N+](C)C)C=C2[Si](C)(C)c2cc(N(C)C)ccc21 [Compound 2-N3]
λabs [2]: 653 nm
λem [2]: 667 nm
Φfl [2]: 0.081

COc1ccc(N)cc1C1=C2C=CC(=[N+](C)C)C=C2[Si](C)(C)c2cc(N(C)C)ccc21 [Compound 2-NH2]
λabs [2]: 650 nm
λem [2]: 669 nm
Φfl [2]: 0.0025
Change in Φfl [2, 6]: 32-fold ↓

COc1ccc(-n2cc(CCC(=O)NCCO)nn2)cc1C1=C2C=CC(=[N+](C)C)C=C2[Si](C)(C)c2cc(N(C)C)ccc21 [Compound 2-triazole]
λabs [2]: 655 nm
λem [2]: 669 nm
Φfl [2]: 0.19
Change in Φfl [2, 7]: 2.3-fold ↑

CN(C)c1ccc2c(c1)[Si](C)(C)C1=CC(=[N+](C)C)C=CC1=C2c1cc(N=[N+]=[N-])ccc1N1CCOCC1 [Compound 3-N3]
λabs [2]: 656 nm
λem [2]: 667 nm
Φfl [2]: 0.0014

CN(C)c1ccc2c(c1)[Si](C)(C)C1=CC(=[N+](C)C)C=CC1=C2c1cc(N)ccc1N1CCOCC1 [Compound 3-NH2]
λabs [2]: 650 nm
λem [2]: 672 nm
Φfl [2]: 0.00096
Change in Φfl [2, 6]: 1.4-fold ↓

CN(C)c1ccc2c(c1)[Si](C)(C)C1=CC(=[N+](C)C)C=CC1=C2c1cc(-n2cc(CCC(=O)NCCO)nn2)ccc1N1CCOCC1 [Compound 3-triazole]
λabs [2]: 663 nm
λem [2]: 676 nm
Φfl [2]: 0.0015
Change in Φfl [2, 7]: 1.1-fold ↑

CN(C)c1ccc2c(c1)[Si](C)(C)C1=CC(=[N+](C)C)C=CC1=C2c1cc(N=[N+]=[N-])cc2[nH]ccc12 [Compound 4-N3]
λabs [2]: 660 nm
λem [2]: 669 nm
Φfl [2]: 0.0048

CN(C)c1ccc2c(c1)[Si](C)(C)C1=CC(=[N+](C)C)C=CC1=C2c1cc(N)cc2[nH]ccc12 [Compound 4-NH2]
λabs [2]: 650 nm
λem [2]: 673 nm
Φfl [2]: 0.00088
Change in Φfl [2, 6]: 5.5-fold ↓

CN(C)c1ccc2c(c1)[Si](C)(C)C1=CC(=[N+](C)C)C=CC1=C2c1cc(-n2cc(CCC(=O)NCCO)nn2)cc2[nH]ccc12 [Compound 4-triazole]
λabs [2]: 654 nm
λem [2]: 668 nm
Φfl [2]: 0.0088
Change in Φfl [2, 7]: 1.8-fold ↑

CN(C)c1ccc2c(c1)[Si](C)(C)C1=CC(=[N+](C)C)C=CC1=C2c1cc(N=[N+]=[N-])cc2c1OCCO2 [Compound 5-N3]
λabs [2]: 655 nm
λem [2]: 668 nm
Φfl [2]: 0.019

CN(C)c1ccc2c(c1)[Si](C)(C)C1=CC(=[N+](C)C)C=CC1=C2c1cc(N)cc2c1OCCO2 [Compound 5-NH2]
λabs [2]: 653 nm
λem [2]: 667 nm
Φfl [2]: 0.00093
Change in Φfl [2, 6]: 21-fold ↓

CN(C)c1ccc2c(c1)[Si](C)(C)C1=CC(=[N+](C)C)C=CC1=C2c1cc(-n2cc(CCC(=O)NCCO)nn2)cc2c1OCCO2 [Compound 5-triazole]
λabs [2]: 656 nm
λem [2]: 668 nm
Φfl [2]: 0.18
Change in Φfl [2, 7]: 9.5-fold ↑

COc1cc(N=[N+]=[N-])cc(C2=C3C=CC(=[N+](C)C)C=C3[Si](C)(C)c3cc(N(C)C)ccc32)c1OC [Compound 6-N3]
λabs [2]: 654 nm
λem [2]: 669 nm
Φfl [2]: 0.039

COc1cc(N)cc(C2=C3C=CC(=[N+](C)C)C=C3[Si](C)(C)c3cc(N(C)C)ccc32)c1OC [Compound 6-NH2]
λabs [2]: 652 nm
λem [2]: 665 nm
Φfl [2]: 0.00067
Change in Φfl [2, 6]: 58-fold ↓

COc1cc(-n2cc(CCC(=O)NCCO)nn2)cc(C2=C3C=CC(=[N+](C)C)C=C3[Si](C)(C)c3cc(N(C)C)ccc32)c1OC [Compound 6-triazole]
λabs [2]: 656 nm
λem [2]: 670 nm
Φfl [2]: 0.18
Change in Φfl [2, 7]: 4.6-fold ↑

COc1cc(C)c(C2=C3C=CC(=[N+](C)C)C=C3[Si](C)(C)c3cc(N(C)C)ccc32)cc1N=[N+]=[N-] [Compound 7-N3]
λabs [2]: 650 nm
λem [2]: 666 nm
Φfl [2]: 0.066

COc1cc(C)c(C2=C3C=CC(=[N+](C)C)C=C3[Si](C)(C)c3cc(N(C)C)ccc32)cc1N [Compound 7-NH2]
λabs [2]: 648 nm
λem [2]: 669 nm
Φfl [2]: 0.0015
Change in Φfl [2, 6]: 45-fold ↓

COc1cc(C)c(C2=C3C=CC(=[N+](C)C)C=C3[Si](C)(C)c3cc(N(C)C)ccc32)cc1-n1cc(CCC(=O)NCCO)nn1 [Compound 7-triazole]
λabs [2]: 652 nm
λem [2]: 666 nm
Φfl [2]: 0.25
Change in Φfl [2, 7]: 3.7-fold ↑

COc1cc(N=[N+]=[N-])c(OC)c(C2=C3C=CC(=[N+](C)C)C=C3[Si](C)(C)c3cc(N(C)C)ccc32)c1 [Compound 8-N3]
λabs [2]: 655 nm
λem [2]: 669 nm
Φfl [2]: 0.051

COc1cc(N)c(OC)c(C2=C3C=CC(=[N+](C)C)C=C3[Si](C)(C)c3cc(N(C)C)ccc32)c1 [Compound 8-NH2]
λabs [2]: 654 nm
λem [2]: 672 nm
Φfl [2]: 0.0012
Change in Φfl [2, 6]: 41-fold ↓

COc1cc(C2=C3C=CC(=[N+](C)C)C=C3[Si](C)(C)c3cc(N(C)C)ccc32)c(OC)c(-n2cc(CCC(=O)NCCO)nn2)c1 [Compound 8-triazole]
λabs [2]: 657 nm
λem [2]: 671 nm
Φfl [2]: 0.16
Change in Φfl [2, 7]: 3.2-fold ↑

COc1cc(OC)c(C2=C3C=CC(=[N+](C)C)C=C3[Si](C)(C)c3cc(N(C)C)ccc32)cc1N [Compound 9-NH2]
λabs [2]: 650 nm
λem [2]: 664 nm
Φfl [2]: 0.0014
Change in Φfl [2, 6]: 3.0-fold ↓

COc1cc(OC)c(-n2cc(CCC(=O)NCCO)nn2)cc1C1=C2C=CC(=[N+](C)C)C=C2[Si](C)(C)c2cc(N(C)C)ccc21 [Compound 9-triazole]
λabs [2]: 655 nm
λem [2]: 668 nm
Φfl [2]: 0.20
Change in Φfl [2, 7]: 48-fold ↑

COCCOCCOCCOc1cc(OCCOCCOCCOC)c(C2=C3C=CC(=[N+](C)C)C=C3[Si](C)(C)c3cc(N(C)C)ccc32)cc1N=[N+]=[N-] [Compound 10]
cell-surface labeling ([3]; Ac4ManNAl-treated CHO K1, no wash, 15 min): robust cell-surface labeling
background labeling ([3]; CHO K1, control or unwanted labeling): minimal
background, intracellular or mitochondrial labeling [4]: mitochondrial staining; also recorded: punctate fluorescence appeared within the cells almost immediately

NC(CNC(=O)OC1C#CCCCCC1)C(=O)O (stereo not drawn) [Compound 12]
effect of excess D-alanine on labeling [5]: excess D-alanine decreases the fluorescence intensity

NC(CNC(=O)OC[C@H]1[C@@H]2CCC#CCC[C@@H]21)C(=O)O (stereo partly drawn) [Compound 13]
effect of excess D-alanine on labeling [5]: excess D-alanine decreases the fluorescence intensity
